“And” between values parts separate entries of the source, which are not always exact repeats. Identical values can stand only once. Values belong to the compound of their own block, whether it stands above or below them.
Assays:
rat TTR = test: Serum TTR level after LNP delivery (Rat Prealbumin (Transthyretin) ELISA); assay type: in vivo, rat (Sprague-Dawley); conditions: LNP with PEG2K-DMG
Experimental: Sprague-Dawley female rats, ranging from 6-10 weeks of age were used in each study. Animals were weighed and dosed based on individual body weight measured the morning of dosing. LNPs were dosed via the lateral tail vein in a volume of 2 mL per kilogram of animal body weight. The animals were periodically observed for adverse effects for at least 24 hours post dose.
For studies measuring in vivo editing in liver, Sprague-Dawley female rats were dosed at 0.1 mpk or 0.03 mpk, unless otherwise noted. Animals were euthanized at 6 or 7 days by carbon dioxide asphyxiation and a heart clip or by ex sanguination via cardiac puncture under isoflourane anesthesia. Blood was collected into serum separator tubes. Liver tissue was collected. Genomic DNA was isolated from the liver tissue for editing measurement by Next-Generation Sequencing (NGS).
Blood was collected and the serum was isolated as indicated. The total rat TTR serum levels were determined using a Rat Prealbumin (Transthyretin) ELISA Kit (Aviva Systems Biology, Cat. #OKIA00159). Briefly, sera were serial diluted with kit sample diluent to a final dilution of 10,000-fold. This diluted sample was then added to the ELISA plates and the assay was then carried out according to manufacturer's protocol.
(§1) In vivo editing efficiency for materials delivered with formulations including various amine lipid (or ionizable lipid) compounds in Experiments 1 through 14 as described in Tables 3 and 4 was assessed. Editing was measured using G000534 (SEQ ID NO: 5) which targets the rat TTR gene. Lipids described above were assessed for efficacy through in vivo editing experiments. LNPs were formulated at a 1:2 w/w ratio of sgRNA (SEQ ID NO: 5) and Cas9 mRNA (SEQ ID NO: 3). In Experiments 1 through 13, lipid components of the LNP are formulated in a molar ratio of 50% ionizable lipid, 38% cholesterol, 9% DSPC, and 3% PEG2K-DMG. In Experiment 14, lipid components of the LNP are formulated in a molar ratio of 50% ionizable lipid, 38% cholesterol, 9% DSPC, and 3% C13 Ether. The final LNPs used in different in vivo editing experiments were characterized to determine the encapsulation efficiency (% E), polydispersity index (PDI), and average particle size (Z-avg and number mean) according to the analytical methods provided above. The pKa values of each of the following ionizable lipids were also measured to be in the range of about 5.8 to about 7.6.
TSS was used as a vehicle-only negative control. The data are illustrated in FIGS. 1A through 14.

[1] = LNP average particle size and polydispersity by dynamic light scattering; assay type: physicochemical; conditions: sgRNA:mRNA 1:2; for Number mean (average particle size) / PDI (polydispersity index) / Z-avg (average particle size): LNP with 50% ionizable lipid, 3% C13 Ether (LNP #1, Compound 53: 3% PEG2K-DMG instead)
Experimental: Dynamic Light Scattering (“DLS”) is used to characterize the polydispersity index (“pdi” or “PDI”) and size of the LNPs of the present disclosure. DLS measures the scattering of light that results from subjecting a sample to a light source. PDI, as determined from DLS measurements, represents the distribution of particle size (around the mean particle size) in a population, with a perfectly uniform population having a PDI of zero.
LNP compositions are analyzed for average particle size, polydispersity index (pdi), total RNA content, encapsulation efficiency of RNA, and zeta potential. LNP compositions may be further characterized by lipid analysis, AF4-MALS, NTA, and/or cryo-EM.
Average particle size and polydispersity are measured by dynamic light scattering (DLS) using a Malvern Zetasizer DLS instrument. LNP samples were diluted with PBS buffer prior to being measured by DLS. Z-average diameter (“Z-avg”) which is an intensity-based measurement of average particle size was reported along with number average diameter (“number mean”) and PDI. A Malvern Zetasizer instrument is also used to measure the zeta potential of the LNP. Samples are diluted 1:17 (50 μL into 800 μL) in 0.1×PBS, pH 7.4 prior to measurement.
as §1
In vivo editing efficiency for materials delivered with formulations including various combinations of amine lipid (or ionizable lipid) and PEG lipid compounds was assessed as described in Tables 5 and 6. Editing was measured using G000534 (SEQ ID NO: 5) which targets the rat TTR gene. Lipids described above were assessed for efficacy through in vivo editing experiments. LNPs were formulated at a 1:2 w/w ratio of sgRNA (SEQ ID NO: 5) and Cas9 mRNA (SEQ ID NO:3). Lipid components of the LNP are formulated in a molar ratio of 50% ionizable lipid, 38% cholesterol, 9% DSPC, and 3% of various PEG lipids (e.g., PEG2K-DMG, C13 Ether, C14 Ether). The final LNPs used in different in vivo editing experiments were characterized to determine the encapsulation efficiency (% E), polydispersity index (PDI), and average particle size (Z-avg and number mean) according to the analytical methods provided above. The pKa values of each of the following ionizable lipids were also measured to be in the range of about 5.8 to about 7.6.
In vivo editing efficiency for materials delivered with formulations including various amine lipid (or ionizable lipid) compounds as described in Tables 7 and 8 was assessed. Editing was measured using G000534 (SEQ ID NO: 5) which targets the rat TTR gene. Lipids described above were assessed for efficacy through in vivo editing experiments. LNPs were formulated at a 1:2 w/w ratio of sgRNA (SEQ ID NO: 5) and Cas9 mRNA (SEQ ID NO: 3). Lipid components of the LNP were formulated in a molar ratio of 50% ionizable lipid, 38% cholesterol, 9% DSPC, and 3% C13 Ether. […]

[2] = Table 3, Experiment 14, LNP with 3% C13 Ether
[3] = Table 3, Experiments 1-13, LNP 50% ionizable lipid, 38% cholesterol, 9% DSPC, 3% PEG2K-DMG

Compound: CCCCC/C=C\C/C=C\CCCCCCCC(=O)OCC(CCCCCCCCC(=O)OC(CCCCCCCC)CCCCCCCCC)COC(=O)CCC(CCCCCCCC)OC(=O)NCCN(C)CC (stereo not shown) [Compound 24, 3-methyl-15-(9-(octadecan-9-yloxy)-9-oxononyl)-9-octyl-7,12-dioxo-8,13-dioxa-3,6-diazahexadecan-16-yl (9Z,12Z)-octadeca-9,12-dienoate]
- % TSS (serum TTR relative to vehicle) (rat TTR; Experiment 5, 0.1 mpk): 95%
- Serum TTR (rat TTR; Experiment 5, 0.1 mpk): 1352.4 µg/mL
- Number mean [1, 3]: 60 nm
- PDI [1, 3]: 0.03
- Z-avg [1, 3]: 67 nm

Compound: CCCCCCCCC(CCCCCCCC)OC(=O)CCCC(=O)OCC(C)(COC(=O)CCCC(=O)OC(CCCCCCCC)CCCCCCCC)COC(=O)NCCN(CC)CC [Compound 36, O,O′-(2-((((2-(diethylamino)ethyl)carbamoyl)oxy)methyl)-2-methylpropane-1,3-diyl) di(heptadecan-9-yl) diglutarate]
- Number mean [1, 3]: 87 nm
- PDI [1, 3]: 0.056
- Z-avg [1, 3]: 103 nm

Compound: CCCCC/C=C\C/C=C\CCCCCCCC(=O)OCC(CCCCCCC(=O)OC(CCCCCCCC)CCCCCCCC)COC(=O)OCCCN(CC)CC (stereo not shown) [Compound 16, 2-((((3-(diethylamino)propoxy)carbonyl)oxy)methyl)-9-(heptadecan-9-yloxy)-9-oxononyl (9Z,12Z)-octadeca-9,12-dienoate]
- Number mean [1, 3]: 62 nm
- PDI [1, 3]: 0.03
- Z-avg [1, 3]: 68 nm

Compound: CCCCC/C=C\C/C=C\CCCCCCCC(=O)OCC(CCCCCCC(=O)OC(CCCC)CCCC)COC(=O)OCCCN(CC)CC (stereo not shown) [Compound 20, 2-((((3-(diethylamino)propoxy)carbonyl)oxy)methyl)-9-(nonan-5-yloxy)-9-oxononyl (9Z,12Z)-octadeca-9,12-dienoate]
- Number mean [1, 3]: 68 nm
- PDI [1, 3]: 0.05
- Z-avg [1, 3]: 84 nm

Compound: CCCCCCCCOC(CCC(=O)OCC(COC(=O)CC(CCCC)CCCCCC)COC(=O)OCCCN(CC)CC)OCCCCCCCC (stereo not shown) [Compound 43, 3-((4,4-bis(octyloxy)butanoyl)oxy)-2-((((3-(diethylamino)propoxy)carbonyl)oxy)methyl)propyl 3-butylnonanoate]
- Number mean [1, 3]: 75 nm
- PDI [1, 3]: 0.04
- Z-avg [1, 3]: 85 nm

Compound: CCCCC/C=C\C/C=C\CCCCCCCC(=O)OCC(COC(=O)CCCC(=O)OC(CCCCCCCC)CCCCCCCC)COC(=O)NCCN1CCCCCC1 (stereo not shown) [Compound 50, 3-(((2-(azepan-1-yl)ethyl)carbamoyl)oxy)-2-((((9Z,12Z)-octadeca-9,12-dienoyl)oxy)methyl)propyl heptadecan-9-yl Glutarate]
- Number mean [1, 3]: 66 nm
- PDI [1, 3]: 0.02
- Z-avg [1, 3]: 74 nm

Compound: CCCCC/C=C\C/C=C\CCCCCCCC(=O)OCC(CCCCCCCCC(=O)OCC(CCCC)CCCCCC)COC(=O)OCCCN(CC)CC (stereo not shown) [Compound 7, 11-((2-butyloctyl)oxy)-2-((((3-(diethylamino)propoxy)carbonyl)oxy)methyl)-11-oxoundecyl (9Z,12Z)-octadeca-9,12-dienoate]
- Number mean [1, 3]: 68 nm
- PDI [1, 3]: 0.03
- Z-avg [1, 3]: 74 nm

Continued, in another order:

- Number mean [1, 2]: 74 nm
- PDI [1, 2]: 0.017
- Z-avg [1, 2]: 80 nm
- Number mean [1, 3]: 65 nm and 72 nm
- PDI [1, 3]: 0.01
- Z-avg [1, 3]: 79 nm and 76 nm
Compound: CCCCCCCCC(CCCCCCCC)OC(=O)CCCC(=O)OCC(COC(=O)CCCC(=O)OC(CCCCCCCC)CCCCCCCC)COC(=O)OCCCN(CC)CC [Compound 2, O,O′-(2-((((3-(diethylamino)propoxy)carbonyl)oxy)methyl)propane-1,3-diyl) di(heptadecan-9-yl) diglutarate]
- % TSS (serum TTR relative to vehicle) (rat TTR; Experiment 2, 0.1 mpk): 17%
- Serum TTR (rat TTR; Experiment 2, 0.1 mpk): 238.5 µg/mL

- Number mean [1, 3]: 78 nm
- PDI [1, 3]: 0.02
- Z-avg [1, 3]: 87 nm
- Number mean ([1]; Table 5, PEG lipid C13 Ether): 80 nm
- PDI ([1]; Table 5, PEG lipid C13 Ether): 0.03
- Z-avg ([1]; Table 5, PEG lipid C13 Ether): 87 nm
- Number mean ([1]; Table 5, PEG lipid C14 Ether): 83 nm
- PDI ([1]; Table 5, PEG lipid C14 Ether): 0.03
- Z-avg ([1]; Table 5, PEG lipid C14 Ether): 95 nm
- Number mean ([1]; Table 5, PEG lipid PEG2K-DMG): 77 nm
- PDI ([1]; Table 5, PEG lipid PEG2K-DMG): 0.03
- Z-avg ([1]; Table 5, PEG lipid PEG2K-DMG): 89 nm
Compound: CCCCCCCCC(CCCCCCCC)OC(=O)CCCCCCC(=O)OCC(COC(=O)CCCCCCC(=O)OC(CCCCCCCC)CCCCCCCC)COC(=O)OCCCN(CC)CC [Compound 60]

- Number mean (average particle size) ([1]; 38% cholesterol, 9% DSPC): 60 nm
- PDI (polydispersity index) ([1]; 38% cholesterol, 9% DSPC): 0.01
- Z-avg (average particle size) ([1]; 38% cholesterol, 9% DSPC): 73 nm
- Number mean [1, 3]: 66 nm
- PDI [1, 3]: 0.023
- Z-avg [1, 3]: 71 nm
Compound: CCCCCCCCC(CCCCCCCC)OC(=O)CCCC(=O)OCC(COC(=O)CCCC(=O)OC(CCCCCCCC)CCCCCCCC)COC(=O)OCCCN1CCCC1 [Compound 33, di(heptadecan-9-yl) O,O′-(2-((((3-(pyrrolidin-1-yl)propoxy)carbonyl)oxy)methyl)propane-1,3-diyl) diglutarate]

- Number mean (average particle size) ([1]; 38% cholesterol, 9% DSPC): 67 nm
- PDI (polydispersity index) ([1]; 38% cholesterol, 9% DSPC): 0.002
- Z-avg (average particle size) ([1]; 38% cholesterol, 9% DSPC): 81 nm
- Number mean [1, 2]: 68 nm
- PDI [1, 2]: 0.02
- Z-avg [1, 2]: 73 nm
- Number mean [1, 3]: 68 nm and 75 nm
- PDI [1, 3]: 0.014 and 0.02
- Z-avg [1, 3]: 75 nm and 79 nm
- Number mean ([1]; Table 5, PEG lipid C13 Ether): 72 nm
- PDI ([1]; Table 5, PEG lipid C13 Ether): 0.01
- Z-avg ([1]; Table 5, PEG lipid C13 Ether): 79 nm
- Number mean ([1]; Table 5, PEG lipid C14 Ether): 81 nm
- PDI ([1]; Table 5, PEG lipid C14 Ether): 0.01
- Z-avg ([1]; Table 5, PEG lipid C14 Ether): 86 nm
- Number mean ([1]; Table 5, PEG lipid PEG2K-DMG): 69 nm
- PDI ([1]; Table 5, PEG lipid PEG2K-DMG): 0.04
- Z-avg ([1]; Table 5, PEG lipid PEG2K-DMG): 78 nm
- Number mean ([1]; Table 7, LNP with 3% C13 Ether): 71 nm
- PDI ([1]; Table 7, LNP with 3% C13 Ether): 0.01
- Z-avg ([1]; Table 7, LNP with 3% C13 Ether): 78 nm
Compound: CCCCCCCCC(CCCCCCCC)OC(=O)CCCC(=O)OCC(COC(=O)CCCC(=O)OC(CCCCCCCC)CCCCCCCC)COC(=O)NCCN(CC)CC [Compound 6, O,O′-(2-((((2-(diethylamino)ethyl)carbamoyl)oxy)methyl)propane-1,3-diyl) di(heptadecan-9-yl) diglutarate]

- Number mean [1, 3]: 64 nm
- PDI [1, 3]: 0.03
- Z-avg [1, 3]: 69 nm
Compound: CCCCCCCCC(CCCCCCCC)OC(=O)CCCCCCC(COC(=O)CCCC(=O)OC(CCCCCCCC)CCCCCCCC)COC(=O)OCCCN(CC)CC (stereo not shown) [Compound 8, 2-((((3-(diethylamino)propoxy)carbonyl)oxy)methyl)-9-(heptadecan-9-yloxy)-9-oxononyl heptadecan-9-yl glutarate]

Reference: patent US20260337153A1, “IONIZABLE AMINE LIPIDS” (Intellia Therapeutics, Inc., priority 2023, published 2026)
